Legend:
[1] = tested on: H460 human non-small cell lung cancer cells; assay: Time lapse photomicrography, H460; type: cell-based; conditions: H460, 200 μM THR53, Ham's F12 + 10% FCS
Description: (§1) Progressive morphological changes in dying H460 cells exposed to 200 μM THR53 [additional file 1], contrasted with progressive cell division in untreated H460 cells [additional file 2] are shown as videos. Immortalised MRC5-hTERT fibroblasts, were unaffected by exposure to 200 μM THR53 except for some generalised slowing of growth (Figure 5A), [additional file 3] as compared to control, untreated, MRC5-hTERT cells [additional file 4]. RT112 cells were more sensitive to THR53 than H460 cells and died within 30 - 40 hours as compared to 96 hours for H460 and the majority of other human cancer cell lines investigated.
(§2) Figure 5 Time Lapse Photomicrography of MRC5-hTERT, RT112 human bladder cancer and […] human non-small cell lung cancer following exposure toTHR53. Cells were incubated in Ham's F12 + 10% FCS (control medium) or medium + 200 μM THR53. Morphological changes of vacuolation + cellar swelling are seen in RT112 at 33 hours after exposure to THR53 and in H460 at 90 hours after exposure to THR53. There was no evidence of cell blebbing or fragmentation. (see also videos)

[2] = tested on: H460 human non-small cell lung cancer cells; assay: H460 cell killing at the dose chosen for assay comparison; type: cell-based; conditions: 100 μM, by 96 hours
Description: In order to probe the mechanism of PRGPRP analogue induced cell death, three assays were conducted on H460 human non-small cell lung cancer cells over a period of 96 hours following exposure to THR53 (Figure 7A). Total cellular protein was measured by sulphorhodamine B [31], mitochondrial oxidation/reduction was measured by Alamar Blue assay and cellular ATP level was measured by luciferase activity. A dose of 100 μM THR53 at which 50% of H460 cells were killed by 96 hours was chosen for assay comparison. […] An assay for autophagy was thus carried out which utilises a proprietary reagent (Cyto-ID Green) that specifically labels autophagolysosomes, co-localising with LC3, a specific autophagosome marker. 25 μM Chloroquine was used as a positive control agent known to induce autophagy. […] However, no difference in the mean fluorescent intensity was seen following treatment with 100 μM THR53 at either 72 h or 96 h, when compared with control.

[3] = tested on: H1299 human non-small cell lung cancer cells; assay: Necrosis assay by Trypan Blue exclusion, H1299; type: cell-based
Description: Necrosis Assay Cells were plated in triplicate in 96 well plates at concentrations of 500 cells per well (HT1299, MCF-7) or 1000 cells per well (H460, MRC5-hTERT) in the presence or absence of the relevant compound and assessed by Trypan Blue exclusion At 2,3,4 and 7 days after plating. To assay, cells were trypsinised off, stained with trypan blue in isotonic medium and live and dead cells separately counted visually by haemocytomter. Each data point is the mean of results from triplicate wells (Solid lines - Live cells, Broken lines - Dead Cells; Blue - Control, Red - THR53 200 μM).

[4] = tested on: NCI-H460 cells; assay: Total cellular protein (sulphorhodamine B assay); type: cell-based, human; conditions: H460, 100 μM THR53, up to 96 hours, sulphorhodamine B
Description: Control medium/alamar blue were removed and 200 μl PBS was added. […] Wells were rinsed with water and allowed to air dry. Cells were then stained in 0.4% SRB solution, before rinsing with 1% acetic acid and air drying. Incorporated dye was solubilised in 10 mM Tris and absorbance measured at 565 nm and 690 nm. Absorbance measurements at 690 nm were subtracted from the 565 nm readings to correct for multi-well plate absorbance.

[5] = tested on: normal diploid human fibroblasts; assay: In-vitro morphological cell viability screen, normal fibroblasts; type: cell-based; conditions: dose 200 μM
Description: A broad search for possible biological activity associated with the [sequence] peptide sequence was initially instituted by screening human bladder cancer cell lines for potential in-vitro morphological changes, compared to control cultures of normal diploid human fibroblasts at 4-8 passages from primary culture as controls. […] The peptides were dissolved, over a range of concentrations, in Ham's F12 + 10% FCS and introduced in 100 μL quantities to microwells containing 500 RT112 bladder cancer cells, or normal diploid human fibroblasts, in 200 μL of Ham's F12 + 10% FCS plated 24 hours earlier on 96 well plates.

[6] = tested on: MCF7 breast cancer cells; assay: Killing of cycling versus serum-deprived MCF-7 cells; type: cell-based, human
Source text: Cell death, however, was not dependent on cell division in MCF-7, RT112 or H460. […] had no effect on cell cycle phase distribution in H460 cells (Figure 6B) and […] hexapeptide cancer cell killing was unrelated to endogenous levels of Cdk4 or Cyclin D1. […] A. Macroscopic appearances of cycling […]-treated MCF-7 human breast cancer cells in medium + 10% FCS (left hand panels) compared to the same cells held outside the cell cycle in medium + 0.1%FCS (right hand panel) B. […] C. Sequential Western blots of Cdk1 and Cdk4 expression in RT112 human bladder cancer cells at 0 - 10 days after exposure to 5 mM linear, end-capped, […].

[7] = tested on: MRC5-hTERT immortalised fibroblasts; assay: Time lapse photomicrography, MRC5-hTERT; type: cell-based, human; conditions: 200 μM; except for some generalised slowing of growth
Description: as §1, §2

[8] = tested on: H460 cells; assay: Autophagy Assay (Cyto-ID Green, flow cytometry); type: cell-based, human; conditions: H460, 100 μM, 72 h and 96 h
Description: Autophagy Assay was performed as recommended by the manufacturers' instructions (Enzo ENZ-51031-[…]). Briefly, H460 cells were seeded into 6 well plates at 2.5 × 10^5 and 1 × 10^5 cells/well. Immediately after cell plating, chloroquine or […] were added at the concentrations indicated. Following compound treatment, cells were washed once in PBS and resuspended in x1 Cyto-ID Green autophagy detection reagent and incubated at room temperature for 30 min. Immediately prior to analysis, propidium iodide (PI) solution was added to the cell suspension at a final concentration of 2.5 μg/ml, to assess cell death. Analysis was carried out using FACSCalibur (BD Biosciences). Cyto-ID Green autophagy reagent was measured in the FL-1 channel (530/30 nm bandpass filters with excitation at 488 nm) and PI measured in the FL-3 channel (670 nm longpass filters with excitation at 488 nm).

With “Cyc-[FPPRGPRPVKLALKLALK] (head to tail) [THR53, cyclic amphiphilic analogue, Cyc-[…]]” the “time at which morphological changes of vacuolation + cellular swelling are seen” value [1] was 90 hours, the “time to cell death” value [1] was 96 h and the H460 cells killed [2] was 50%. For the same substance, the “day at which necrotic cells are initially detectable” value ([3]; H1299, 200 μM) was 3 days, the “necrosis detected by trypan blue uptake” value ([3]; H1299, 200 μM, 2, 3, 4 and 7 days after plating, triplicate wells) was “induces necrosis” and the total cellular protein [4] was “without change”. The “Cell Viability Normal Diploid Fibroblasts” value [5] was “+ + +”, the “effect on serum-deprived MCF7 cells” value ([6]; medium + 0.1%FCS, cells held outside the cell cycle) was “no effect” and the “effect on cycling MCF-7 cells” value ([6]; medium +10% FCS) was “killed”. The “effect on MRC5-hTERT fibroblasts, time lapse” value [7] was “unaffected” and the “autophagy, Cyto-ID Green mean fluorescent intensity compared with control” value [8] was “no difference”.

— publication PMC3126777, “Selective anticancer activity of a hexapeptide with sequence homology to a non-kinase domain of Cyclin Dependent Kinase 4” (Molecular Cancer, 2011)
